Results: US5686486A, “4-hydroxy-benzopyran-2-ones and 4-hydroxy-cycloalkyl[b]pyran-2-ones useful to treat retroviral infections” (priority 1995, dated 1997)
Values joined by “and” are separate entries in the source; they are usually repeats but may differ in a detail not shown here. Identical values can stand only once. Like-named read-outs stand apart in the source and are kept apart here.

Legend:
HIV-1 protease [1] = target: T1, HIV-1 protease (Human immunodeficiency virus type 1 group M subtype B, UniProt P04585); experiment: biochemical; details: for inhibition at 0.123 µM: read-out: HIV-1 Protease % Inhib, dose 0.123 uM; for inhibition at 0.37 µM: read-out: HIV-1 Protease % Inhib, dose 0.370 uM; for inhibition at 1.1 µM: read-out: HIV-1 Protease % Inhib, dose 1.100 uM; for inhibition at 3.3 µM: read-out: HIV-1 Protease % Inhib, dose 3.300 uM; for inhibition at 10 µM: read-out: HIV-1 Protease % Inhib, dose 10.000 uM; for inhibition at 30 µM: read-out: HIV-1 Protease % Inhib, dose 30.000 uM; for inhibition at 1 µM: read-out: HIV-1 Protease % Inhib, dose 1.000 uM; for inhibition at 100 µM: read-out: HIV-1 Protease % Inhib, dose 100.000 uM
Outline: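 Percent inhibition derived from fluorescent cleavage product separated by filtration after streptavidin-bead capture of intact biotin/FITC substrate. Reaction: enzyme (10 μl, 0.1 μM stock) with substrate (20 μl, 0.2 μM stock) and compound, 1 h at room temperature in dark, pH 5.5 acetate buffer with 1.0 M NaCl and 0.05% NP-40.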

HIV-1 protease [2] = target: T1, HIV-1 protease; experiment: biochemical
Procedure: Determination of Ki values utilizes the same materials and equipment employed for percent inhibition studies. Two-fold serial dilutions are made for a given inhibitor from 2, 3 or 4 starting concentrations with a total of 24, 36 or 48 individual inhibitor concentrations. These dilutions are performed utilizing the BioMek robotics system. The assay consists of 10 μL of 40 nM HIV-1 protease, 10 μL of the various inhibitor concentrations, and 20 μL of 200 μM substrate (40 μL total). The reaction is allowed to proceed for 90 min at room temperature, terminated with 40 μL of avidin beads and processed (supra vide). An inhibitor with a known Ki is run in parallel to verify the validity of the assay. The data is processed utilizing a computer program employing a nonlinear least square analysis of the data to generate the Ki values.

Row | Structure (SMILES) | inhibition at 0.123 µM (HIV-1 protease [1]) | inhibition at 0.37 µM (HIV-1 protease [1]) | inhibition at 1.1 µM (HIV-1 protease [1]) | inhibition at 3.3 µM (HIV-1 protease [1]) | inhibition at 10 µM (HIV-1 protease [1]) | inhibition at 30 µM (HIV-1 protease [1]) | Ki (HIV-1 protease [2]; read-out: HIV-1 FITC KI) | also measured
1 | O=c1oc2c(c(O)c1C(c1cccc(NS(=O)(=O)c3ccccc3C(F)(F)F)c1)C1CC1)CCCCCC2 (stereo not shown) [Example 286, N-[3-[Cyclopropyl(5,6,7,8,9,10-hexahydro4-hydroxy-2-oxo-2H-cycloocta[b]pyran-3-yl)methyl]phenyl]-2-(trifluoromethyl)-benzenesulfonamide] | 30% | 62.4% | 83.3% | 92.3% | 97.4% | 93.7% | 21.4 nM | 
2 | CC(C)(C)OC(=O)NCC(=O)Nc1cccc(C(c2c(O)c3c(oc2=O)CCCCCC3)C2CC2)c1 (stereo not shown) [Example 200, Carbamic acid, [2-[[3-[cyclopropyl(5,6,7,8,9,10-hexahydro-4-hydroxy-2-oxo-2H-cycloocta[b]pyran-3-yl)methyl]phenyl]amino]-2-oxyethyl]-, 1,1-dimethylethyl ester] | 64.6% | 88.5% | 90.9% | 103% | 105% | 99.1% | 2.9 nM | 
3 | CCC(c1cccc(NS(=O)(=O)CC)c1)c1c(O)c2ccccc2oc1=O (stereo not shown) [Example 138, Ethanesulfonic acid (3-(1-(4-hydroxy-2-oxo-2H-chromen-3-yl)-propyl)-phenyl)-amide] |  |  |  |  | 64.5% |  |  | inhibition at 1 µM (HIV-1 protease [1]): 11.9%; inhibition at 100 µM (HIV-1 protease [1]): 99.3%; Ki (HIV-1 protease [2]; HIV-1 FITC KI): 2350 nM
4 | O=c1oc2c(c(O)c1C(c1ccccc1)C1CC1)CCCCC2Cc1ccccc1 (stereo not shown) [Example 182, 3-(Cyclopropylphenylmethyl)-6,7,8,9-tetrahydro-4-hydroxy-9-(phenylmethyl)-cyclohepta[b]pyran-2(5H)-one] |  | 22.3% | 51% | 83.7% | 99.2% | 98.7% | 117 nM | 
5 | O=c1oc2c(c(O)c1C(c1ccccc1)C1CC1)CCCCCC2CC1CCCO1 (single isomer, unassigned) [Example 170, 3-(Cyclopropylphenylmethyl)-5,6,7,8,9,10-hexahydro-4-hydroxy-10-[(tetrahydro-2-furanyl)methyl]-2H-cycloocta[b]pyran-2-one] | 23.2% | 62.3% | 92.5% | 99.3% | 107% | 111% | 31 nM | 
6 | CN(C)c1ccc(S(=O)(=O)Nc2cccc(C(c3c(O)c4c(oc3=O)CCCCCC4)C3CC3)c2)cc1 (stereo not shown) [Example 352, N-[3-[Cyclopropyl(5,6,7,8,9,10-hexahydro-4-hydroxy-2-oxo-2H-cycloocta[b]pyran-3-yl)methyl]phenyl]-4-(dimethylamino)-benzenesulfonamide] | 49.7% | 78.5% | 97.9% | 104% | 102% | 94.6% | 2.84 nM | 
7 | CC(C)(C)OC(=O)N[C@@H](Cc1c[nH]cn1)C(=O)Nc1cccc(C(c2c(O)c3c(oc2=O)CCCCCC3)C2CC2)c1 (stereo partly drawn) [Example 213, Carbamic acid, [2-[[3-[cyclopropyl(5,6,7,8,9,10-hexahydro-4-hydroxy-2-oxo-2H-cycloocta[b]pyran-3-yl)methyl]phenyl]amino]-1-(S)-(1H-imidazol-4-ylmethyl)-2-oxoethyl]-, 1,1-dimethylethyl ester] |  | 82.2% | 94.5% | 102% | 109% | 99.3% | 3.5 nM | HIV-1 Protease % Inhib (HIV-1 protease [1]; dose 0.123 uM): 74.4%
8 | O=c1oc2ccccc2c(O)c1C(Cc1ccccc1)Cc1ccccc1 [Example 146, 3-(1-Benzyl-2-phenyl-ethyl)4-hydroxy-chromen-2-one] |  |  |  |  | 92.7% |  |  | inhibition at 1 µM (HIV-1 protease [1]): 54.4%; inhibition at 100 µM (HIV-1 protease [1]): 98.6%; Ki (HIV-1 protease [2]; HIV-1 FITC KI): 130 nM
9 | CCCCCCCCS(=O)(=O)Nc1cccc(C(c2c(O)c3c(oc2=O)CCCCCC3)C2CC2)c1 (stereo not shown) [Example 343, N-[3-[Cyclopropyl(5,6,7,8,9,10-hexahydro-4-hydroxy-2-oxo-2H-cycloocta[b]pyran-3-yl)methyl]phenyl]-1-octanesulfonamide] | 39.4% | 75% | 91.2% | 104% | 112% | 105% | 6 nM | 
10 | Cn1cnc(S(=O)(=O)Nc2cccc([C@@H](c3c(O)c4c(oc3=O)CCCCCC4)C3CC3)c2)c1 [Example 254, (-)-N-[3-[Cyclopropyl(5,6,7,8,9,10-hexahydro-4-hydroxy-2-oxo-2H-cycloocta[b]pyran-3-yl)methyl]phenyl]-1-methyl-1H-imidazole-4-sulfonamide] |  |  |  |  |  |  | 0.65 nM | HIV-1 Protease % Inhib (HIV-1 protease [1]; dose 0.123 uM): 82.28%; HIV-1 Protease % Inhib (HIV-1 protease [1]; dose 0.370 uM): 97.98%; HIV-1 Protease % Inhib (HIV-1 protease [1]; dose 1.100 uM): 107.75%; HIV-1 Protease % Inhib (HIV-1 protease [1]; dose 3.300 uM): 111.05%; HIV-1 Protease % Inhib (HIV-1 protease [1]; dose 10.000 uM): 112.1%; HIV-1 Protease % Inhib (HIV-1 protease [1]; dose 30.000 uM): 103.1%
11 | CCCC(c1cccc(NS(=O)(=O)c2ccc(C#N)cc2)c1)c1c(O)c2c(oc1=O)CCCCCC2 (single isomer, unassigned) [Example 437, (R or S)-Benzenesulfonamide, 4-cyano-N-[3-[1-(5,6,7,8,9,10-hexahydro-4-hydroxy-2-oxo-2H-cycloocta[b]pyran-3-yl)butyl]phenyl]-] | 68.1% | 87.1% | 103% | 108% | 112% | 105% | 2.3 nM | 
12 | O=C(NCc1ccc(C(c2c(O)c3c(oc2=O)CCCCCC3)C2CC2)o1)OCc1ccccc1 (stereo not drawn) [Example 388, 3-(α-Cyclopropyl (5-(N-carbobenzoxy)aminomethyl)furfur-2-yl)-4-hydroxy-5,6,7,8,9,10-hexahydrocycloocta[b]pyran-2-one] |  | 42.8% | 76% | 96.5% | 98.2% | 93.7% | 21.7 nM | 
13 | CCOC(=O)Nc1cccc(C(c2c(O)c3c(oc2=O)CCCCCC3)C2CC2)c1 (stereo not shown) [Example 226, [3-[Cyclopropyl(5,6,7,8,9,10-hexahydro4-hydroxy-2-oxo-2H-cycloocta[b]pyran-3-yl)methyl]phenyl]-, ethyl ester carbamic acid] | 14.2% | 43.7% | 74.1% | 87.6% | 101% | 104% | 18.9 nM | 
14 | CCC(c1ccccc1)c1c(O)c2c(oc1=O)C(C)CCCCC2 (stereo not shown) [Example 126, 4-Hydroxy-10-methyl-3-(1-phenyl-propyl)-5,6,7,8,9,10-hexahydro-cycloocta[b]pyran-2-one] |  |  |  |  |  |  | 331 nM | inhibition at 0.41 µM (HIV-1 protease [1]; read-out: HIV-1 Protease % Inhib, dose 0.410 uM): 25.9%; inhibition at 1.23 µM (HIV-1 protease [1]; read-out: HIV-1 Protease % Inhib, dose 1.230 uM): 59%; inhibition at 3.7 µM (HIV-1 protease [1]; read-out: HIV-1 Protease % Inhib, dose 3.700 uM): 89.8%; inhibition at 11 µM (HIV-1 protease [1]; read-out: HIV-1 Protease % Inhib, dose 11.000 uM): 96.7%; inhibition at 33 µM (HIV-1 protease [1]; read-out: HIV-1 Protease % Inhib, dose 33.000 uM): 100%; inhibition at 100 µM (HIV-1 protease [1]): 95%
15 | O=c1oc2c(c(O)c1C(c1ccccc1)C1CC1)CCCCCC2 (stereo not shown) [Example 107, 3-(Cyclopropylphenylmethyl)-5,6,7,8,9,10-hexahydro-4-hydroxy-2h-cycloocta[b]pyran-2-one] |  |  |  |  | 101% |  | 20 nM and 12 nM and 7 nM | inhibition at 1 µM (HIV-1 protease [1]): 90.7%; inhibition at 100 µM (HIV-1 protease [1]): 101%
